Results reported in US5075289A, “9-R-azacyclic erythromycin antibiotics” (priority 1988, dated 1991).
Converted amounts (≈) assume the structure as drawn. Like-named read-outs stand apart in the source and are kept apart here.

Experiments:
Assay in all cases: In vitro antibacterial activity, agar dilution MIC
Type in all cases: cell-based
[1] = tested on: Enterococcus faecium ATCC 8043
Summary of the method: (§1)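 Test compound serially diluted in Brain Heart Infusion agar across twelve plates; inocula of 1:100 dilutions (1:10 for slow growers such as Streptococcus) applied by replicator. Plates incubated 20-24 h at 35°-37° C. MIC taken as lowest concentration giving no growth, slight haze or sparse isolated colonies versus drug-free control.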

Escherichia coli DC-2 = conditions: DC2
Summary of the method: as §1

Escherichia coli H560 = conditions: H560
Summary of the method: as §1

Escherichia coli Juhl = tested on: Escherichia coli Juhl
Summary of the method: as §1

Escherichia coli SS = conditions: read-out: MIC
Summary of the method: as §1

[2] = tested on: Haemophilus influenzae 1177; conditions: H. influenzae 1177
Summary of the method: as §1

[3] = tested on: Haemophilus influenzae 1435; conditions: H. influenzae 1435
Summary of the method: as §1

[4] = tested on: Haemophilus influenzae 503B; conditions: H. influenzae 503B
Summary of the method: as §1

[5] = tested on: Haemophilus influenzae 504; conditions: H. influenzae 504
Summary of the method: as §1

[6] = tested on: Haemophilus influenzae 519A; conditions: H. influenzae 519A
Summary of the method: as §1

[7] = tested on: Haemophilus influenzae 566A; conditions: H. influenzae 566A
Summary of the method: as §1

[8] = tested on: Haemophilus influenzae 588A; conditions: H. influenzae 588A
Summary of the method: as §1

[9] = tested on: Haemophilus influenzae 632A; conditions: H. influenzae 632A
Summary of the method: as §1

[10] = tested on: Haemophilus influenzae 667A; conditions: H. influenzae 667A
Summary of the method: as §1

[11] = tested on: Haemophilus influenzae 747C; conditions: H. influenzae 747C
Summary of the method: as §1

[12] = tested on: Haemophilus influenzae ATCC 10211; conditions: ATCC10211, H. influenzae ATCC 10211
Summary of the method: as §1

[13] = tested on: Haemophilus influenzae ATCC 19418; conditions: ATCC19418, H. influenzae ATCC 19418
Summary of the method: as §1

[14] = tested on: Haemophilus influenzae ATCC 9795; conditions: ATCC9795, H. influenzae ATCC 9795
Summary of the method: as §1

[15] = tested on: Haemophilus influenzae DILL AMP R; conditions: H. influenzae DILL AMP R
Summary of the method: as §1

[16] = tested on: Haemophilus influenzae SOL AMP R; conditions: H. influenzae SOL AMP R
Summary of the method: as §1

[17] = tested on: Haemophilus influenzae SPK AMP R; conditions: H. influenzae SPK AMP R
Summary of the method: as §1

[18] = tested on: Micrococcus luteus ATCC 4698
Summary of the method: as §1

[19] = tested on: Micrococcus luteus ATCC 9341; conditions: ATCC9341, M. luteus ATCC 9341, Brain Heart Infusion agar, 20-24 hours, read-out: MIC
Summary of the method: as §1

Staphylococcus aureus 45 = tested on: Staphylococcus aureus 45
Summary of the method: as §1

[20] = tested on: Staphylococcus aureus A5177; conditions: S. aureus A5177, Brain Heart Infusion agar, 20-24 hours, read-out: MIC
Summary of the method: as §1

[21] = tested on: Staphylococcus aureus ATCC 6538P; conditions: ATCC6538P
Summary of the method: as §1

[22] = tested on: Staphylococcus aureus CMX 503A; conditions: CMX503A, S. aureus CMX 503A, Brain Heart Infusion agar, 20-24 hours, read-out: MIC
Summary of the method: as §1

[23] = tested on: Staphylococcus aureus CMX 553; conditions: CMX553, S. aureus CMX 553, Brain Heart Infusion agar, 20-24 hours, read-out: MIC
Summary of the method: as §1

[24] = tested on: Staphylococcus aureus CMX 686B; conditions: CMX686B, S. aureus CMX 686B, Brain Heart Infusion agar, 20-24 hours, read-out: MIC
Summary of the method: as §1

[25] = tested on: Staphylococcus epidermidis 3519; conditions: S. epidermidis 3519, Brain Heart Infusion agar, 20-24 hours, read-out: MIC
Summary of the method: as §1

[26] = tested on: Streptococcus agalactiae CMX 508; conditions: CMX508, S. agalactiae CMX 508, Brain Heart Infusion agar, 20-24 hours, read-out: MIC
Summary of the method: as §1

[27] = tested on: Streptococcus bovis A5169
Summary of the method: as §1

[28] = tested on: Streptococcus pyogenes 2548 INDUC; conditions: S. pyogenes 2548 INDUC, Brain Heart Infusion agar, 20-24 hours, read-out: MIC
Summary of the method: as §1

[29] = tested on: Streptococcus pyogenes 930 CONST; conditions: 930CONST
Summary of the method: as §1

[30] = tested on: Streptococcus pyogenes EES61; conditions: S. pyogenes EES61, Brain Heart Infusion agar, 20-24 hours, read-out: MIC
Summary of the method: as §1

In the case of `CC[C@H]1OC(=O)[C@H](C)[C@@H](O[C@H]2C[C@@](C)(OC)[C@@H](O)[C@H](C)O2)[C@H](C)[C@@H](O[C@@H]2O[C@H](C)C[C@H](N(C)C)[C@H]2O)[C@](C)(O)C[C@@H](C)[C@@H](N2CCCCC2)[C@H](C)[C@@H](O)[C@]1(C)O` [Example 5], the MIC ([1]; ATCC8043, E. faecium ATCC 8043, Brain Heart Infusion agar, 20-24 hours, read-out: MIC) is reported as 0.1 µg/mL (≈ 0.125 µM), the MIC (Escherichia coli DC-2) is reported as 50 µg/mL (≈ 62.3 µM) and the MIC (Escherichia coli H560) is reported as 25 µg/mL (≈ 31.1 µM). It also gave an MIC (Escherichia coli Juhl) of 50 µg/mL (≈ 62.3 µM), an MIC (Escherichia coli SS; E. coli SS, Brain Heart Infusion agar, 20-24 hours) of 0.39 µg/mL (≈ 0.486 µM) and an MIC [2] of 0.25 µg/mL (≈ 0.311 µM). It also gave an MIC [3] of 0.5 µg/mL (≈ 0.623 µM), an MIC [4] of 0.5 µg/mL (≈ 0.623 µM) and an MIC [5] of 1 µg/mL (≈ 1.25 µM). It also gave an MIC [6] of 0.5 µg/mL (≈ 0.623 µM), an MIC [7] of 2 µg/mL (≈ 2.49 µM) and an MIC [8] of 1 µg/mL (≈ 1.25 µM). It also gave an MIC [9] of 1 µg/mL (≈ 1.25 µM), an MIC [10] of 1 µg/mL (≈ 1.25 µM) and an MIC [11] of 1 µg/mL (≈ 1.25 µM). The MIC [12] was 1 µg/mL (≈ 1.25 µM), the MIC [13] was 2 µg/mL (≈ 2.49 µM) and the MIC [14] was 1 µg/mL (≈ 1.25 µM). The MIC [15] was 1 µg/mL (≈ 1.25 µM), the MIC [16] was 1 µg/mL (≈ 1.25 µM) and the MIC [17] was 1 µg/mL (≈ 1.25 µM). The MIC ([18]; ATCC4698, M. luteus ATCC 4698, Brain Heart Infusion agar, 20-24 hours, read-out: MIC) was 0.2 µg/mL (≈ 0.249 µM), the MIC [19] was 0.1 µg/mL (≈ 0.125 µM) and the MIC (Staphylococcus aureus 45; S. aureus 45, Brain Heart Infusion agar, 20-24 hours, read-out: MIC) was 0.78 µg/mL (≈ 0.971 µM). The MIC [20] was 6.2 µg/mL (≈ 7.72 µM), the MIC ([21]; S. aureus ATCC 6538P, Brain Heart Infusion agar, 35-37° C., 20-24 hours, read-out: MIC) was 0.39 µg/mL (≈ 0.486 µM) and the MIC [22] was 0.39 µg/mL (≈ 0.486 µM). For the same compound, the MIC [23] was 0.39 µg/mL (≈ 0.486 µM), the MIC [24] was 0.39 µg/mL (≈ 0.486 µM) and the MIC [25] was 0.39 µg/mL (≈ 0.486 µM). For the same compound, the MIC [26] was 0.05 µg/mL (≈ 0.0623 µM), the MIC ([27]; S. bovis A5169, Brain Heart Infusion agar, 20-24 hours, read-out: MIC) was 0.1 µg/mL (≈ 0.125 µM) and the MIC [28] was 6.2 µg/mL (≈ 7.72 µM). The MIC [29] was > 100 µg/mL and the MIC [30] was 0.05 µg/mL (≈ 0.0623 µM).
Work on `CC[C@H]1OC(=O)[C@H](C)[C@@H](O[C@H]2C[C@@](C)(OC)[C@@H](O)[C@H](C)O2)[C@H](C)[C@@H](O[C@@H]2O[C@H](C)C[C@H](N(C)C)[C@H]2O)[C@](C)(O)C[C@@H](C)[C@@H](N2CCOCC2)[C@H](C)[C@@H](O)[C@]1(C)O` [Example 19] yielded an MIC ([1]; ATCC8043) of 0.1 µg/mL (≈ 0.124 µM), an MIC (Escherichia coli DC-2) of 50 µg/mL (≈ 62.1 µM) and an MIC (Escherichia coli H560) of 6.2 µg/mL (≈ 7.7 µM). It also gave an MIC (Escherichia coli Juhl) of 50 µg/mL (≈ 62.1 µM), an MIC (Escherichia coli SS) of 0.2 µg/mL (≈ 0.248 µM) and an MIC [2] of 0.25 µg/mL (≈ 0.311 µM). It also gave an MIC [3] of 1 µg/mL (≈ 1.24 µM), an MIC [4] of 1 µg/mL (≈ 1.24 µM) and an MIC [5] of 4 µg/mL (≈ 4.97 µM). It also gave an MIC [6] of 2 µg/mL (≈ 2.48 µM), an MIC [7] of 4 µg/mL (≈ 4.97 µM) and an MIC [8] of 2 µg/mL (≈ 2.48 µM). It also gave an MIC [9] of 4 µg/mL (≈ 4.97 µM), an MIC [10] of 4 µg/mL (≈ 4.97 µM) and an MIC [11] of 2 µg/mL (≈ 2.48 µM). For the same compound, the MIC [12] was 2 µg/mL (≈ 2.48 µM), the MIC [13] was 4 µg/mL (≈ 4.97 µM) and the MIC [14] was 4 µg/mL (≈ 4.97 µM). The MIC [15] was 2 µg/mL (≈ 2.48 µM), the MIC [16] was 2 µg/mL (≈ 2.48 µM) and the MIC [17] was 4 µg/mL (≈ 4.97 µM). It also gave an MIC ([18]; ATCC4698, read-out: MIC) of 0.2 µg/mL (≈ 0.248 µM), an MIC [19] of 0.05 µg/mL (≈ 0.0621 µM) and an MIC (Staphylococcus aureus 45; 45) of 0.39 µg/mL (≈ 0.484 µM). The MIC [20] was 6.2 µg/mL (≈ 7.7 µM), the MIC [21] was 0.39 µg/mL (≈ 0.484 µM) and the MIC [22] was 0.39 µg/mL (≈ 0.484 µM). It also gave an MIC [23] of 0.39 µg/mL (≈ 0.484 µM), an MIC [24] of 0.39 µg/mL (≈ 0.484 µM) and an MIC [25] of 0.39 µg/mL (≈ 0.484 µM). It also gave an MIC [26] of 0.05 µg/mL (≈ 0.0621 µM), an MIC [27] of 0.1 µg/mL (≈ 0.124 µM) and an MIC [28] of 6.2 µg/mL (≈ 7.7 µM). For the same compound, the MIC [29] was > 100 µg/mL and the MIC [30] was 0.05 µg/mL (≈ 0.0621 µM).
